Measured values as given in paper PMC10725991, “Kaempferol is a novel antiviral agent against channel catfish virus infection through blocking viral attachment and penetration in vitro” (Frontiers in Veterinary Science, 2023).

Columns and labels:
[1] = system: CCV-induced CPE in CCO cells; experiment: CPE reduction assay; assay type: cell-based, Channel catfish virus (CCV, Ictalurid herpesvirus 1)
Description: To test the anti-CCV effect of tested compounds in the preliminary screening, CCO cells were seeded in 24-well plates and cultured to reach approximately 90% confluence in each well at 28°C. Subsequently, the cells were infected with the CCV at 10^3 TCID50/ml at 28°C for 1 h. After that, the cell culture medium was replaced using an isopycnic DMEM medium containing the maximum safe concentration of indicated compounds. CCV-infected cells treated with DMSO served as a negative control, whereas CCV-infected cells treated with acyclovir (2.5 μg/mL) served as a positive control ([33]). After 36 h treatment, cell lysates were collected to test the CCV gene expression by the RT-qPCR, and the percentage inhibition of CCV infection by individual compound was calculated. According to the percentage inhibition results, we further detected the antiviral activity of kaempferol at maximum safe concentration by viral cytopathic effects (CPE) and western blot analysis.
For analyzing the CPE reduction of viral infected CCO cells by kaempferol, the CCO cells were seeded in 24-well plates and cultured overnight at 28°C before infection. Then, the monolayer cells were infected with CCV at 10^3 TCID50/ml for 1 h. Subsequently, the infected cells were treated with kaempferol at different concentrations (2.5, 5, 7.5, 10, 12.5, and 15 μg/mL), respectively. […]

[2] = system: CCV in CCO cells; experiment: Liquid plaque assay; assay type: cell-based, Channel catfish virus (CCV; settings: Ictalurid herpesvirus 1; kaempferol 10 μg/mL, 36 h; read-out: inhibition of viral plaque formation
Description: For analyzing the CPE reduction of viral infected CCO cells by kaempferol, the CCO cells were seeded in 24-well plates and cultured overnight at 28°C before infection. Then, the monolayer cells were infected with CCV at 10^3 TCID50/ml for 1 h. Subsequently, the infected cells were treated with kaempferol at different concentrations (2.5, 5, 7.5, 10, 12.5, and 15 μg/mL), respectively. The CCO cells without CCV and drug treatment were set as mock control whereas the virus-infected cells without compound treatment were set as CCV control. Each sample was directly observed and photographed under an inverted microscope at 24 and 36 h post-infection. Meanwhile, the plaque assay was performed as described in previous studies with slight modifications ([34]). Briefly, confluent cells in 24-well plates were infected with CCV (10^3 TCID50/ml) for 1 h. Subsequently, the inoculums were removed and the kaempferol with different concentrations (2.5, 5, 7.5, 10, 12.5, and 15 μg/mL) was added and remained throughout the experiment. The cells were fixed and stained with 1% crystal violet and then photographed at 36 h post-infection.
Figure 4 CPE and plaque reduction in CCO cells treated with kaempferol. (A) The cells were incubated with different concentrations of kaempferol (2.5, 5.0, 7.5, 10, 12.5 and 15.0 μg/mL) after CCV infection 1 h. […]

**Q.** `O=c1c(O)c(-c2ccc(O)cc2)oc2cc(O)cc(O)c12` [Kaempferol] was tested. Which “CCV-induced CPE” value ([1]; kaempferol 10–15 μg/mL, until 36 h) did it give?
**A.** no obvious CPE

**Q.** And the “CPE induced by CCV infection” value ([1]; maximum safe concentration (47.53 μg/mL), 36 h post-infection)?
**A.** significantly reduced CPE

**Q.** And the inhibition at 10 µg/mL [2]?
**A.** ~100%
